# Laboratory results published in US20190307843A1, “SINGLE DOSE METHODS FOR PREVENTING AND TREATING FUNGAL INFECTIONS” (Cidara Therapeutics, Inc., priority 2016, published 2019).
# Like-named read-outs stand apart in the source and are kept apart here. Starred links: 1 amine or outer side, 2 acyl side, 3 side chain; linkers in the order of their positions; H or OH if unused. Positions of bridges follow the written chain, without caps; N, C: chain ends. Non-standard residues stand in square brackets, D forms with d. Residues, ends and D or L forms follow the SMILES beside them. *: point of attachment. Orn(4R-OH,5R-OCH2CH2NMe3+) = C[N+](C)(C)CCO[C@@H](N[*:3])[C@H](O)C[C@H](N[*:1])C(=O)[*:2]; pTerphenylCO(4''-OnC5H11) = CCCCCOc1ccc(-c2ccc(-c3ccc(C(=O)*)cc3)cc2)cc1; hTyr(3S-OH,4S-OH) = N[C@H](C(=O)O)[C@H](O)[C@@H](O)c1ccc(O)cc1; Pro(3S-OH,4S-Me) = C[C@H]1CN[C@H](C(=O)O)[C@H]1O; Hyp = O=C(O)[C@@H]1C[C@@H](O)CN1
# Columns and labels:
# [1] = test system: Aspergillus fumigatus (ATCC 13073); test: Prophylaxis, neutropenic ICR mouse disseminated aspergillosis model, survival
# [2] = Plasma and lung epithelial lining fluid (ELF) concentrations in ICR mice, 20 mg/kg IP; assay type: in vivo, mouse; conditions: for Kp / half-life: 20 mg/kg
# Protocol: At pre-dose, 1, 3, 6, 12, 24, 48, and 72 hours post-dose, 3 mice/timepoint were anesthetized/euthanized for blood collection (plasma) and bronchoalveolar lavage fluid (BALF) collection with 2×0.5 mL flushes of saline. Urea levels for plasma/BALF normalization for the volume of lung epithelial lining fluid (ELF) calculation were quantified using a commercially-available spectrophotometry-based assay. CD101 concentrations in plasma/BALF samples were measured by LC with electrospray ionization tandem mass spectrometric (LC-MS/MS) detection.
# Urea for plasma/BALF normalization for ELF volume were quantified using spectrophotometry. CD101 concentrations in plasma/BALF samples were measured by LC-MS/MS. Total plasma concentrations were corrected for protein binding (99.2%).
# [3] = test system: C. parapsilosis; test: Neutropenic murine disseminated candidiasis model, PK/PD targets, C. parapsilosis
# [4] = test system: A. fumigatus clinical isolates; test: CLSI broth microdilution (M38-A2) MEC, SENTRY clinical isolates; assay type: cell-based, Aspergillus fumigatus; conditions: 153 A. fumigatus clinical isolates, 2014 and 2015
# From the text: The in vitro activity of CD101 was previously evaluated as part of the SENTRY international surveillance program using CLSI broth microdilution methodology (M38-A2, M27-A3; Pfaller, et al 2017). […] These susceptibility data were then compared graphically to CD101 plasma concentrations from studies in healthy adults, adjusted for plasma protein binding. Nonclinical efficacy in a murine model of Pneumocystis pneumonia were also considered to evaluate CD101 doses for clinical investigation of antifungal prophylaxis.
# The in vitro activity of CD101 was evaluated against 153 A. fumigatus clinical isolates collected as part of the 2014 and 2015 JMI international SENTRY surveillance program. Susceptibility was determined by measuring the minimal effective concentration (MEC) values in accordance with CLSI broth microdilution guidelines (M38-A2). In vivo tissue distribution of CD101 in SD rats (N=3/time up to 5 d) after a 5 mg/kg IV CD101 dose. Plasma/tissue concentrations were measured by LC-MS/MS.
# [5] = test system: candidemia; test: Human subject with candidemia, single intravenous dose (Example 2); assay type: in vivo; conditions: single dose of 50-800 mg acetate salt of CD101, intravenous infusion
# Protocol: A human subject is diagnosed with candidemia using standard diagnostic procedures. The subject receives treatment with a single dose of 50-800 mg (e.g., 75±25 mg, 100±25 mg, 150±50 mg, 200±50 mg, 250±50 mg, 300±50 mg, 350±50 mg, 400±50 mg, 450±50 mg, 500±100 mg, 600±100 mg, 700±100 mg, 800±100 mg, 900±50 mg, 1000 mg±100 mg, or 1100±100 mg) of the acetate salt of CD101 administered by intravenous infusion. No other antifungal treatment is provided to the subject within one to three weeks before or after administration of the single dose CD101 treatment.
# [6] = test system: C. parapsilosis; test: In vitro susceptibility testing (CLSI M27-A3), C. parapsilosis; assay type: cell-based, Candida parapsilosis; conditions: Lodderomyces parapsilosis, 24 h
# Protocol: Ten clinical Candida strains were used for the in vivo treatment studies, including four C. albicans, three C. glabrata, and three C. parapsilosis strains (Table 15). This group was selected to encompass phenotypic variability in susceptibility to triazoles and echinocandins and based on similar fitness in the animal model as defined by the amount of growth in control animals over 24 h. The organisms were maintained, grown, and quantified on Sabouraud's dextrose agar (SDA) plates.
# In vitro susceptibility testing. All isolates were tested in accordance with the standards in CLSI document M27-A3. The MICs were determined visually after 24 h of incubation as the lowest concentration of drug that causes a significant diminution (50%) of growth compared to controls. MICs were determined on three separate occasions in duplicate.
# [7] = test system: C. glabrata; test: Neutropenic murine disseminated candidiasis model, PK/PD targets, C. glabrata
# [8] = C. glabrata, Median of 3 strains
smiles,measurement,setting,value
"CCCCCOc1ccc(-c2ccc(-c3ccc(C(=O)N[C@H]4C[C@@H](O)[C@@H](OCC[N+](C)(C)C)NC(=O)[C@@H]5[C@@H](O)[C@@H](C)CN5C(=O)[C@H]([C@@H](C)O)NC(=O)[C@H]([C@H](O)[C@@H](O)c5ccc(O)cc5)NC(=O)[C@@H]5C[C@@H](O)CN5C(=O)[C@H]([C@@H](C)O)NC4=O)cc3)cc2)cc1 [CD101] ({pTerphenylCO(4''-OnC5H11)}-[Orn(4R-OH,5R-OCH2CH2NMe3+)]T[Hyp][hTyr(3S-OH,4S-OH)]T[Pro(3S-OH,4S-Me)]; lactam 1-C)",survival,"[1]; CD101 SC 5 mg/kg, 14 days",increased survival when prophylaxis was given closer to challenge
same,"symptoms of infection (body weight, hunched posture, ruffled fur, immobility, hypothermia)","[1]; CD101 SC 5, 10 and 20 mg/kg on Day −5, −3 and −1",improved
same,survival,"[1]; CD101 SC 10 and 20 mg/kg, any prophylactic treatment day, 14 days",All animals in the 10 and 20 mg/kg groups survived
same,14-day survival,[1]; CD101 at 5 mg/kg SC administered one hour after infection,significant increase in the 14-day survival
same,survival,"[1]; prophylaxis, Doses 0 mg/kg",100%
same,survival,"[1]; prophylaxis, single 5 mg/kg dose given up to 5 days prior to infection",improved survival depending on day given
same,ELF half-life,[2]; 20 mg/kg IP,32 h
same,mean maximum ELF concentration,[2]; 20 mg/kg IP,15.1 µg/mL
same,mean maximum plasma concentration,[2]; 20 mg/kg IP,30.1 µg/mL
same,plasma half-life,[2]; 20 mg/kg IP,21.1 h
same,time of maximum plasma concentration,"[2]; 20 mg/kg IP, first collection timepoint",1 h
same,Kp,"[2]; ICR, mouse, lung epithelial lining fluid (ELF), intraperitoneal, free-drug, read-out: ELF/Plasma AUClast ratio",100
same,Kp,"[2]; ICR, mouse, lung epithelial lining fluid (ELF), intraperitoneal, total-drug, read-out: ELF/Plasma AUClast ratio",0.8
same,concentration at 72 h,"[2]; ICR, mouse, lung epithelial lining fluid (ELF), intraperitoneal, 20 mg/kg IP, at 72 h",4000 ng/mL
same,Kp,"[2]; ICR, mouse, lung epithelial lining fluid (ELF), ip, 20 mg/kg IP, read-out: AUC exposure ratios of ELF/plasma",0.8 to 0.95
same,half-life,"[2]; ICR, mouse, lung epithelial lining fluid (ELF), ip, 20 mg/kg IP, read-out: ELF half-life (converted)",31.9 h
same,AUC,"[2]; ICR, mouse, lung epithelial lining fluid (ELF), 20 mg/kg IP, read-out: mean ELF AUC",802 µg·h/mL
same,AUC(0-t),"[2]; ICR, mouse, lung epithelial lining fluid (ELF), 20 mg/kg IP, read-out: mean ELF AUC0-72",606 µg·h/mL
same,half-life,"[2]; ICR, mouse, plasma, ip, 20 mg/kg IP, read-out: plasma half-life (converted)",21 h
same,AUC,"[2]; ICR, mouse, plasma, 20 mg/kg IP, read-out: mean plasma AUC",848 µg·h/mL
same,AUC(0-t),"[2]; ICR, mouse, plasma, 20 mg/kg IP, read-out: mean plasma AUC0-72",762 µg·h/mL
same,median stasis 24 h free drug AUC/MIC target,[3]; C. parapsilosis,2.61
same,Stasis 24 h Ave free drug AUC/MIC,[3]; C. parapsilosis 20423.072,1.39
same,Stasis free drug AUC0-168h/MIC,[3]; C. parapsilosis 20423.072,9.74
same,Stasis total drug AUC0-168h/MIC,[3]; C. parapsilosis 20423.072,1217.49
same,Static dose,[3]; C. parapsilosis 20423.072,9.62 mg/kg
same,Stasis 24 h Ave free drug AUC/MIC,[3]; C. parapsilosis 20477.048,3.82
same,Stasis free drug AUC0-168h/MIC,[3]; C. parapsilosis 20477.048,26.72
same,Stasis total drug AUC0-168h/MIC,[3]; C. parapsilosis 20477.048,3339.42
same,Static dose,[3]; C. parapsilosis 20477.048,52.96 mg/kg
same,median stasis free drug AUC0-168/MIC target,[3]; C. parapsilosis (only two strains achieved the endpoint),18.2
same,MEC50,[4],0.015 µg/mL
same,MEC90,[4],0.015 µg/mL
same,MEC range,[4],≤0.0078 to 0.03 µg/mL
same,candidemia infection at follow-up visit,[5],confirmed to be resolved
same,MIC,[6]; C. parapsilosis 20423.072,0.5 µg/mL
same,MIC,[6]; C. parapsilosis 20477.048,1 µg/mL
same,MIC,[6]; C. parapsilosis 20519.069,1 µg/mL
same,1 log kill 24 h Ave Free drug AUC/MIC,[7]; C. glabrata 5592,0.36
same,1 log kill dose,[7]; C. glabrata 5592,0.43 mg/kg
same,1 log kill free drug AUC0-168h/MIC,[7]; C. glabrata 5592,2.54
same,1 log kill total drug AUC0-168h/MIC,[7]; C. glabrata 5592,317.50
same,Stasis 24 h Ave free drug AUC/MIC,[7]; C. glabrata 5592,0.05
same,Stasis free drug AUC0-168h/MIC,[7]; C. glabrata 5592,0.35
same,Stasis total drug AUC0-168h/MIC,[7]; C. glabrata 5592,43.16
same,Static dose,[7]; C. glabrata 5592,0.06 mg/kg
same,1 log kill 24 h Ave Free drug AUC/MIC,[7]; C. glabrata 10956,1.20
same,1 log kill dose,[7]; C. glabrata 10956,17.25 mg/kg
same,1 log kill free drug AUC0-168h/MIC,[7]; C. glabrata 10956,8.42
same,1 log kill total drug AUC0-168h/MIC,[7]; C. glabrata 10956,1052.22
same,Stasis 24 h Ave free drug AUC/MIC,[7]; C. glabrata 10956,0.48
same,Stasis free drug AUC0-168h/MIC,[7]; C. glabrata 10956,3.35
same,Stasis total drug AUC0-168h/MIC,[7]; C. glabrata 10956,418.68
same,Static dose,[7]; C. glabrata 10956,6.29 mg/kg
same,1 log kill 24 h Ave Free drug AUC/MIC,[7]; C. glabrata 35315,0.42
same,1 log kill dose,[7]; C. glabrata 35315,2.39 mg/kg
same,1 log kill free drug AUC0-168h/MIC,[7]; C. glabrata 35315,2.94
same,1 log kill total drug AUC0-168h/MIC,[7]; C. glabrata 35315,367.06
same,Stasis 24 h Ave free drug AUC/MIC,[7]; C. glabrata 35315,0.07
same,Stasis free drug AUC0-168h/MIC,[7]; C. glabrata 35315,0.50
same,Stasis total drug AUC0-168h/MIC,[7]; C. glabrata 35315,62.50
same,Static dose,[7]; C. glabrata 35315,0.34 mg/kg
same,1 log kill 24 h Ave Free drug AUC/MIC,"[7]; C. glabrata, Mean of 3 strains",0.66
same,1 log kill dose,"[7]; C. glabrata, Mean of 3 strains",6.69 mg/kg
same,1 log kill free drug AUC0-168h/MIC,"[7]; C. glabrata, Mean of 3 strains",4.63
same,1 log kill total drug AUC0-168h/MIC,"[7]; C. glabrata, Mean of 3 strains",578.93
same,Stasis 24 h Ave free drug AUC/MIC,"[7]; C. glabrata, Mean of 3 strains",0.20
same,Stasis free drug AUC0-168h/MIC,"[7]; C. glabrata, Mean of 3 strains",1.40
same,Stasis total drug AUC0-168h/MIC,"[7]; C. glabrata, Mean of 3 strains",174.78
same,Static dose,"[7]; C. glabrata, Mean of 3 strains",2.23 mg/kg
same,1 log kill 24 h Ave Free drug AUC/MIC,[7]; [8],0.42
same,1 log kill dose,[7]; [8],2.39 mg/kg
same,1 log kill free drug AUC0-168h/MIC,[7]; [8],2.94
same,1 log kill total drug AUC0-168h/MIC,[7]; [8],367.06
same,Stasis 24 h Ave free drug AUC/MIC,[7]; [8],0.07
same,Stasis free drug AUC0-168h/MIC,[7]; [8],0.5
same,Stasis total drug AUC0-168h/MIC,[7]; [8],62.50
same,Static dose,[7]; [8],0.34 mg/kg
same,kill at high doses,"[7]; C. glabrata, a number of strains",> 2 log10
